Laboratory results reported in patent US20250268894A1, “MACROCYCLE COMPOUNDS FOR THE TREATMENT OF CANCER” (Hoffmann-La Roche Inc., priority 2022, published 2025).

Experiments:
[1] = target: KRAS G12V-BRAF complex (Homo sapiens (Human), UniProt P01116+P62937, G12V); assay: KRAS-BRAF with CYPA (500 nM) interaction assay (TR-FRET), G12V; assay type: biochemical
Protocol: (§1) Kras-BRAF with CYPA (500 nM) Interaction Assay In this example, TR-FRET was also used to measure the compound or compound-CYPA dependent disruption of the KRAS G12C-BRAF complex. This protocol was also used to measure disruption of KRAS G12D or KRAS G12V binding to BRAF by a compound of the invention, respectively. […] Compound was present in plate wells as a 16-point 3-fold dilution series starting at a final concentration of 10 μM and incubated for 3 hours. […] TR-FRET signal was read on a […] microplate reader (Ex320 nm, Em 665/615 nm). Compounds that facilitate disruption of the KRAS-BRAF complex were identified as those eliciting a decrease in the TR-FRET ratio relative to DMSO control wells.

[2] = system: AGS cells (KRAS G12D); assay: Cell viability assay (Cell Counting Kit-8), KRAS G12D; assay type: cell-based; conditions: Homo sapiens, 72 hrs
Protocol: (§2) The purpose of this cellular assay was to determine the effects of test compounds on the proliferation of human cancer cell lines NCI-H358 (ATCC-CRL5807) cells, AGS (ATCC-CRL-1739) cells, SW620 (ATCC-CCL-227) over a 3-day treatment period by quantifying the amount of NADPH present at endpoint using Cell Counting Kit-8.
(§3) Cells were seeded at 5,000 cells/well (NCI-H358), 2,000 cells/well (AGS)2,000 cells/well (SW620) in 96-well assay plates (Corning-3699) and incubated overnight. On the day of the assay, diluted compounds were then added in a final concentration of 0.5% DMSO. After 72 hrs incubation, a tenth of the volume of cell counting kit 8 (Dnjindo-CK04) was added into each well. Read the signal (OD450 minus OD650) using EnVision after 2 hrs incubation. IC50 was determined by fitting a 4-parameter sigmoidal concentration response model.

[3] = system: phosphorylation of ERK, KRAS G12D in AGS cells; assay: pERK inhibition assay, KRAS G12D in AGS cells; assay type: cell-based, human; conditions: Homo sapiens, 4 hours
Protocol: (§4) This assay is to measure the ability of test compounds in inhibiting the phosphorylation of ERK, the downstream signaling of KRAS G12C in NCI-H358 cells, KRAS G12D in AGS cells, and KRAS G12V in SW620. NCI-H358 (ATCC-CRL5807) cells, AGS (ATCC-CRL-1739) cells, SW620 (ATCC-CCL-227) cells were all grown and maintained using RPMI-1640 medium (Thermo Fisher Scientific) with 10% fetal bovine serum and 1% penicillin/streptomycin. On the day prior to compound addition, cells were plated in tissue culture-treated 96 well plates (Corning-3699) at a density of 30,000 cell/well, 20,000 cell/well, 30,000 cell/well for NCI-H358, AGS and SW620 respectively, and allowed for attachment overnight. Diluted compounds were then added in a final concentration of 0.5% DMSO. After 4 hours of incubation, the medium was removed, 100 μL of 4% formaldehyde was added, and the assay plates were incubated at room temperature for 20 minutes. The plates were then washed once with phosphate buffered saline (PBS), and permeabilized with 100 μL of chilled methanol for 10 minutes. Non-specific antibody binding to the plates was blocked using 50 μL 1X BSA blocking buffer (Thermo-37520, 10-fold dilution by Phosphate-Buffered Saline Tween (PBST) for at least 1 hour at room temperature.
(§5) The amount of phosphor-ERK was determined using an antibody specific for phosphorylated form of ERK. Primary antibody (PERK, CST-4370, Cell Signaling Technology) was diluted 1:300 in blocking buffer, with 50 μL aliquoted to each well, and incubated overnight at 4° C. Cells was washed five times for 5 minutes with PBST. Secondary antibody (HRP-linked anti-rabbit IgG, CST-7074, Cell Signaling Technology) was diluted 1:1000 in blocking buffer, and 50 μL was added to each well and incubated 1-2 hrs at room temperature. Cells was washed […] for 5 minutes with PBST, 100 μL TMB ELISA substrate (abcam-ab171523) were added and gently shake for 20 minutes. 50 μL stop solution (abcam-ab171529) were added, and then read the signal (OD450) by EnVision.
(§6) IC50 was determined by fitting a 4-parameter sigmoidal concentration response model.

[4] = system: SW620 cells (KRAS G12V); assay: Cell viability assay (Cell Counting Kit-8), KRAS G12V; assay type: cell-based; conditions: Homo sapiens, SW-620, SW620, 72 hrs
Protocol: as §2, §3

[5] = target: KRAS G12D-BRAF complex (Homo sapiens (Human), UniProt P01116+P62937, G12D); assay: KRAS-BRAF with CYPA (500 nM) interaction assay (TR-FRET), G12D; assay type: biochemical
Chain of KRAS G12D-BRAF complex (P01116-2 other isoform, or with tags, fused parts or gaps G12D): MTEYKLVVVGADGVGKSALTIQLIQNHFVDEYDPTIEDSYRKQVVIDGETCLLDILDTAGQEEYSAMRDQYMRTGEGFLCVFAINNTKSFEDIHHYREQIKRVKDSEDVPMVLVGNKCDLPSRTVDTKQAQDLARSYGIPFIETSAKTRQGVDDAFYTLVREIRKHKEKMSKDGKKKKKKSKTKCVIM
Chain of KRAS G12D-BRAF complex (P62937 whole entry): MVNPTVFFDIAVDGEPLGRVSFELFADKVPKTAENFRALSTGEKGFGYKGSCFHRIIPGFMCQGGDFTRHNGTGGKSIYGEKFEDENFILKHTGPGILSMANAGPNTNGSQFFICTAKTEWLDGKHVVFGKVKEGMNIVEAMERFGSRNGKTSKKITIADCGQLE
Protocol: as §1

[6] = system: NCI-H358 cells (KRAS G12C); assay: Cell viability assay (Cell Counting Kit-8), KRAS G12C; assay type: cell-based; conditions: Homo sapiens, NCI-H358, 72 hrs
Protocol: as §2, §3

[7] = target: KRAS G12C-BRAF complex (Homo sapiens (Human), UniProt P01116+P62937, G12C); assay: KRAS-BRAF with CYPA (500 nM) interaction assay (TR-FRET), G12C; assay type: biochemical
Chain of KRAS G12C-BRAF complex (P01116-2 other isoform, or with tags, fused parts or gaps G12C): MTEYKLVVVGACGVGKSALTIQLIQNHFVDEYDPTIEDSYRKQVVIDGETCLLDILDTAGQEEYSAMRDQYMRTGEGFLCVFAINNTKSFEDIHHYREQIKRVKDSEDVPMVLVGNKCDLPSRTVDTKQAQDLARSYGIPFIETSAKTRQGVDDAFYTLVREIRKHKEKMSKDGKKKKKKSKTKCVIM
Chain of KRAS G12C-BRAF complex (P62937 whole entry): as the sequence (P62937 whole entry) above
Protocol: as §1

[8] = system: phosphorylation of ERK, KRAS G12C in NCI-H358 cells; assay: pERK inhibition assay, KRAS G12C in NCI-H358 cells; assay type: cell-based, human; conditions: Homo sapiens, NCI-H358, 4 hours
Protocol: as §4, §5, §6

[9] = system: phosphorylation of ERK, KRAS G12V in SW620 cells; assay: pERK inhibition assay, KRAS G12V in SW620; assay type: cell-based, human; conditions: Homo sapiens, SW-620, SW620, 4 hours
Protocol: as §4, §5, §6

Chain of KRAS G12V-BRAF complex (P01116-2 other isoform, or with tags, fused parts or gaps G12V): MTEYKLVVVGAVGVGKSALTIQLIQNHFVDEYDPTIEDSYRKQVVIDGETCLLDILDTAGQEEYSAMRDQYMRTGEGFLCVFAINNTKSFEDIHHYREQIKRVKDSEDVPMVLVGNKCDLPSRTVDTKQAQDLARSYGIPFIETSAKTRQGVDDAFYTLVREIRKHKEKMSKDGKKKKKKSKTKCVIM
Chain of KRAS G12V-BRAF complex (P62937 whole entry): as the sequence (P62937 whole entry) above

SMILES	IC50 [1] [nM]	IC50 [2] [nM]	IC50 [3] [nM]	IC50 [4] [nM]	IC50 [5] [nM]	IC50 [6] [nM]	IC50 [7] [nM]	IC50 [8] [nM]	IC50 [9] [nM]
CO[C@@H](C)c1ncc(N2CCN(C)CC2)cc1-c1c2c3cc(c(F)cc3n1CC(F)(F)F)-c1csc(n1)C[C@H](NC(=O)[C@H](C(C)C)N(C)C(=O)N1CC(N(C)C)C1)C(=O)N1CCC[C@H](N1)C(=O)OCC(C)(C)C2 (atropisomer, axis not shown; (M)) [Example 1, 3-(dimethylamino)-N-[(1S)-1-[[(7S,13S)-24-fluoro-(20M)-20-[2-[(1S)-1-methoxyethyl]-5-(4-methylpiperazin-1-yl)-3-pyridyl]-17,17-dimethyl-8,14-dioxo-21-(2,2,2-trifluoroethyl)-15-oxa-4-thia-9,21,27,28-tetrazapentacyclo[17.5.2.1^2,5.1^9,13.0^22,26]octacosa-1(25),2,5 (28),19,22 (26),23-hexaen-7-yl]carbamoyl]-2-methyl-propyl]-N-methyl-azetidine-1-carboxamide]	70	13	2	1	147	2	46	1	1
CCn1c(-c2cc(N3CCN(CC(F)(F)F)CC3)cnc2[C@H](C)OC)c2c3cc(c(F)cc31)-c1csc(n1)C[C@H](NC(=O)[C@H](C(C)C)N(C)C(=O)N1CCOCC1)C(=O)N1CCC[C@H](N1)C(=O)OCC(C)(C)C2 (atropisomer, axis not shown; (M)) [Example 9, N-[(1S)-1-[[(7S,13S)-21-ethyl-24-fluoro-(20M)-20-[2-[(1S)-1-methoxyethyl]-5-[4-(2,2,2-trifluoroethyl)piperazin-1-yl]-3-pyridyl]-17,17-dimethyl-8,14-dioxo-15-oxa-4-thia-9,21,27,28-tetrazapentacyclo[17.5.2.1^2,5.1^9,13.0^22,26]octacosa-1 (25),2,5 (28),19,22 (26),23-hexaen-7-yl]carbamoyl]-2-methyl-propyl]-N-methyl-morpholine-4-carboxamide]	124	91	23	14	225	24	49	24	9
CCn1c(-c2cc(N3CCN(C)CC3)cnc2[C@H](C)OC)c2c3cc(c(F)cc31)-c1csc(n1)C[C@H](NC(=O)[C@H](C(C)C)N(C)C(=O)N1CCOCC1)C(=O)N1CCC[C@H](N1)C(=O)OCC(C)(C)C2 (atropisomer, axis not shown; (M)) [Example 10, N-[(1S)-1-[[(7S,13S)-21-ethyl-24-fluoro-(20M)-20-[2-[(1S)-1-methoxyethyl]-5-(4-methylpiperazin-1-yl)-3-pyridyl]-17,17-dimethyl-8,14-dioxo-15-oxa-4-thia-9,21,27,28-tetrazapentacyclo[17.5.2.1^2,5.1^9,13.0^22,26]octacosa-1 (25),2,5 (28),19,22 (26),23-hexaen-7-yl]carbamoyl]-2-methyl-propyl]-N-methyl-morpholine-4-carboxamide]	149	40	8	6	186	6	61	14	6
CO[C@@H](C)c1ncc(N2CCOCC2)cc1-c1c2c3cc(c(F)cc3n1CC(F)(F)F)-c1csc(n1)C[C@H](NC(=O)[C@H](C(C)C)N(C)C(=O)N1CCOCC1)C(=O)N1CCC[C@H](N1)C(=O)OCC(C)(C)C2 (atropisomer, axis not shown; (M)) [Example 11, N-[(1S)-1-[[(7S,13S)-24-fluoro-20-(20M)-[2-[(1S)-1-methoxyethyl]-5-morpholino-3-pyridyl]-17,17-dimethyl-8,14-dioxo-21-(2,2,2-trifluoroethyl)-15-oxa-4-thia-9,21,27,28-tetrazapentacyclo[17.5.2.1^2,5.1^9,13.0^22,26]octacosa-1(25),2,5(28),19,22(26),23-hexaen-7-yl]carbamoyl]-2-methyl-propyl]-N-methyl-morpholine-4-carboxamide]	59	6	1	1	112	2	24	3	1
CO[C@@H](C)c1ncc(N2CCN(CC(F)(F)F)CC2)cc1-c1c2c3cc(c(F)cc3n1CC(F)(F)F)-c1csc(n1)C[C@H](NC(=O)[C@H](C(C)C)N(C)C(=O)N1CC(N(C)C)C1)C(=O)N1CCC[C@H](N1)C(=O)OCC(C)(C)C2 (atropisomer, axis not shown; (M)) [Example 12, 3-(dimethylamino)-N-[(1S)-1-[[(7S,13S)-24-fluoro-(20M)-20-[2-[(1S)-1-methoxyethyl]-5-[4-(2,2,2-trifluoroethyl)piperazin-1-yl]-3-pyridyl]-17,17-dimethyl-8,14-dioxo-21-(2,2,2-trifluoroethyl)-15-oxa-4-thia-9,21,27,28-tetrazapentacyclo[17.5.2.1^2,5.1^9,13.0^22,26]octacosa-1 (25),2,5 (28),19,22 (26),23-hexaen-7-yl]carbamoyl]-2-methyl-propyl]-N-methyl-azetidine-1-carboxamide]	85	38	15	7	140	9	29	6	4
CCn1c(-c2cc(N3CCOCC3)cnc2[C@H](C)OC)c2c3cc(c(F)cc31)-c1csc(n1)C[C@H](NC(=O)[C@H](C(C)C)N(C)C(=O)NCC(F)(F)F)C(=O)N1CCC[C@H](N1)C(=O)OCC(C)(C)C2 (atropisomer, axis not shown; (M)) [Example 13, (2S)-N-[(7S,13S)-21-ethyl-24-fluoro-(20M)-20-[2-[(1S)-1-methoxyethyl]-5-morpholino-3-pyridyl]-17,17-dimethyl-8,14-dioxo-15-oxa-4-thia-9,21,27,28-tetrazapentacyclo[17.5.2.1^2,5.1^9,13.0^22,26]octacosa-1 (25),2,5 (28),19,22 (26),23-hexaen-7-yl]-3-methyl-2-[methyl(2,2,2-trifluoroethylcarbamoyl)amino]butanamide]	> 10000	447	46	29	> 10000	26	> 10000	19	8
